Reference: patent US20160368870A1, “OLEFIN SUBSTITUTED OXINDOLES HAVING AMPK ACTIVITY” (BOEHRINGER INGELHEIM INTERNATIONAL GMBH, priority 2013, published 2016)

Assays:
AMPK beta 1 = molecular target: T1, AMPK beta 1 (Homo sapiens, UniProt Q13131+Q9Y478); experiment: in-cell-ELISA for phospho-ACC, Activity beta 1; format: cell-based; settings: 2 h, serum free DMEM, percentage activation over vehicle control, cell line not given (HepG2 or C2C12 myotubes)
T1 construct: in-cell-ELISA for phospho-ACC (Acetyl-CoA carboxylase 1) in HepG2 cells (liver); endogenous in cells; host or cells: HepG2
Method: (§1) Activation of AMPK by various compounds were measured using in-cell-ELISA for phospho-ACC (Acetyl-CoA carboxylase 1) in HepG2 cells (liver) and fully differentiated myotubes (C2C12 cells) grown in 96 well plate. Cells were treated with 1 μM of the molecule for 2 h in serum free DMEM media. After methanol fixation, cells were blocked with BSA followed by addition of anti-phospho ACC antibody (Cell Signaling) and HRP conjugated secondary antibody. Absorbance values taken at 450 nm and were normalized with total DNA (Hoechest stain). Results were expressed as percentage activation over vehicle control.

[1] = solubility of sodium salt in water; format: physicochemical; settings: read-out: soluble in water
Method: To a stirred solution of acid (compound 67, 1 mmol) in EtOH (25v) was added 0.5M NaOH solution (1 mmol) drop-wise at 30° C. followed by 10V of water. After 30 minutes, excess of ethanol was removed under reduced pressure at 35 deg C. and repeatedly distilled with ethanol two or three times until free solid obtained. The solid was further washed with n-Hexane to obtain compound 67 Compound 67 is soluble in 1 mg/mL water.
The protocol for synthesizing compound 67 was followed to prepare compound 68. Compound 68 is also soluble in 1 mg/mL water.

AMPK beta 2 = molecular target: T2, AMPK beta 2 (Mus musculus, UniProt Q6PAM0+Q8BRK8); experiment: in-cell-ELISA for phospho-ACC, Activity beta 2; format: cell-based; settings: 2 h, serum free DMEM, percentage activation over vehicle control, cell line not given (HepG2 or C2C12 myotubes)
T2 construct: fully differentiated myotubes (C2C12 cells) grown in 96 well plate; endogenous in cells; host or cells: C2C12 myotubes
Method: as §1

T1 sequence (Q9Y478 whole entry): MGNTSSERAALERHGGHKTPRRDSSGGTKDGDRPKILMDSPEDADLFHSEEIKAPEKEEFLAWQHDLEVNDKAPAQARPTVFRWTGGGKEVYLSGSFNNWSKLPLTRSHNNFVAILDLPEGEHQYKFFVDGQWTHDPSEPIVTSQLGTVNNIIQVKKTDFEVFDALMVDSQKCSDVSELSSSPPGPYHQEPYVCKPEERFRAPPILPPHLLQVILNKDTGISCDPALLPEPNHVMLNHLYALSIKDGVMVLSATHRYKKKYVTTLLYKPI
T1 sequence (Q13131 whole entry): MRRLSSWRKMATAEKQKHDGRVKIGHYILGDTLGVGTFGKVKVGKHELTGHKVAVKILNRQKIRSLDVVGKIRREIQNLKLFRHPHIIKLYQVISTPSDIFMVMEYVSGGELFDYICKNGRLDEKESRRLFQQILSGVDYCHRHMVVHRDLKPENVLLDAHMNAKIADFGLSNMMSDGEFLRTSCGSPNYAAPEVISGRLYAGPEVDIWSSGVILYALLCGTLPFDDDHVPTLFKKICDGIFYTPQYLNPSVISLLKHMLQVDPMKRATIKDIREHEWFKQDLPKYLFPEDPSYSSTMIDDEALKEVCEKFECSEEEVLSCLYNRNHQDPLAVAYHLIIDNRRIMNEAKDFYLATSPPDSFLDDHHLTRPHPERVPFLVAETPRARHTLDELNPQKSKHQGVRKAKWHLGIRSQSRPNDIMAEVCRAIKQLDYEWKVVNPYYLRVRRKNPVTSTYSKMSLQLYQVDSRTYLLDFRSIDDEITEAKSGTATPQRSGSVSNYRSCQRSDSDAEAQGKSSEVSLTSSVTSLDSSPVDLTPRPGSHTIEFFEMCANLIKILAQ
T1 sequence (P54619 whole entry partner): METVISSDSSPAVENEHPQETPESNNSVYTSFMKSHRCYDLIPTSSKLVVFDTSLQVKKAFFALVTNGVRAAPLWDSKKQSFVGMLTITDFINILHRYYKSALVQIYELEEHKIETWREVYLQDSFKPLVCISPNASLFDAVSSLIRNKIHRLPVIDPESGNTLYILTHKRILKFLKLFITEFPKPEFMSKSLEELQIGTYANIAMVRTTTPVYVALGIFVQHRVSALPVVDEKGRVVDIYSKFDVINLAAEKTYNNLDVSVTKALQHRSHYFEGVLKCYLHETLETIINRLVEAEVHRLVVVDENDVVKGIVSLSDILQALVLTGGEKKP
T2 sequence (Q6PAM0 whole entry): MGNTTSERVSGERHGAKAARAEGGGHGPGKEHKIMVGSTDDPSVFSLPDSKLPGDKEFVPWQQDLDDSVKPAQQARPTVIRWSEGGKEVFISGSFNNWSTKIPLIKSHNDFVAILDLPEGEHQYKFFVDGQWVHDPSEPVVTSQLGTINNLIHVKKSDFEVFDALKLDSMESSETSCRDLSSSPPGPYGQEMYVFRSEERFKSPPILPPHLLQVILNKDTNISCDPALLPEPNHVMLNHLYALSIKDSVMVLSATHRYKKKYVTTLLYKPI
T2 sequence (Q8BRK8 whole entry): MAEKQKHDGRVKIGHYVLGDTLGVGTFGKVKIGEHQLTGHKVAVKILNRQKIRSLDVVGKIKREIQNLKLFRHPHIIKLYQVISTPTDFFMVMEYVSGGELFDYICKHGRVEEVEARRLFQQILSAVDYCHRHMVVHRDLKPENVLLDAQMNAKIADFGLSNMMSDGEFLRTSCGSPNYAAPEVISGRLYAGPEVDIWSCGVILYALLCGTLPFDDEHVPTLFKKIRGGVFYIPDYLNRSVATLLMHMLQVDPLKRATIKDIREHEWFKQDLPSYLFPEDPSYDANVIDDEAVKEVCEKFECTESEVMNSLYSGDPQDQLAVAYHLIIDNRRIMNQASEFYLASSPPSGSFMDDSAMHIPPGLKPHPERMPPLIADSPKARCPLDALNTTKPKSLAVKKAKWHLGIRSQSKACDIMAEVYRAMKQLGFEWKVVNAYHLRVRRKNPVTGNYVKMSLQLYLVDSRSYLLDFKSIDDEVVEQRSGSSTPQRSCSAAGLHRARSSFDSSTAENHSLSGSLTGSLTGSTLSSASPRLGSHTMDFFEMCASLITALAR
T2 sequence (O54950 whole entry partner): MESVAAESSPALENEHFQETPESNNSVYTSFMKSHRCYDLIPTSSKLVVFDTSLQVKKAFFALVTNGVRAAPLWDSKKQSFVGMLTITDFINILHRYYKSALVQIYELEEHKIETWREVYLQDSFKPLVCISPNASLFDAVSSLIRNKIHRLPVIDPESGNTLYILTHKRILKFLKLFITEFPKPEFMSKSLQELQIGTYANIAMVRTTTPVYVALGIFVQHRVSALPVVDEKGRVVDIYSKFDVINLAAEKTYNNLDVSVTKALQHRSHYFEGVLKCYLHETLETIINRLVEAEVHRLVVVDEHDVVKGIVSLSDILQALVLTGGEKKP

| activation at 1 µM (AMPK beta 1) [%] | solubility [1] [µg/mL] | Activity beta 2 (at 1 uM) (AMPK beta 2) | SMILES |
| --- | --- | --- | --- |
| > 40 | ≥ 1000 |  | COc1ccc(/C=C2\C(=O)Nc3cc(Cl)c(-c4ccc(-c5ccc(-n6cncn6)cc5)cc4)cc32)cc1CC(=O)[O-].[Na+] [Example 67, sodium {5-[(E/Z)-{6-chloro-2-oxo-5-[4′-(1H-1,2,4-triazol-1-yl)biphenyl-4-yl]-1,2-dihydro-3H-indol-3-ylidene}methyl]-2-methoxyphenyl}acetate] |
| > 40 |  | *** (*** >40) | COc1ccc(C=C2C(=O)Nc3cc(Cl)c(-c4ccc(-c5ccc(-n6cncn6)cc5)cc4)cc32)cc1CC(=O)O [Example 51] |
| > 40 |  | *** (*** >40) | Cc1ccc(C=C2C(=O)Nc3cc(Cl)c(-c4ccc(-c5ccc(S(C)(=O)=O)cc5)cc4)cc32)cc1CC(=O)O [Example 48] |
| > 40 | ≥ 1000 |  | O=C(O)Cc1ccc(/C=C2\C(=O)Nc3cc(Cl)c(-c4ccc(-c5ccc(-n6cncn6)cc5)cc4)cc32)cc1 [Example 68, sodium {4-[(E/Z)-{6-chloro-2-oxo-5-[4′-(1H-1,2,4-triazol-1-yl)biphenyl-4-yl]-1,2-dihydro-3H-indol-3-ylidene}methyl]phenyl}acetate] |
